Results on two compounds are retold here after article PMC11438743, “High-dose colistin pharmacokinetics in critically ill patients receiving continuous renal replacement therapy” (Annals of Intensive Care, 2024).

A short description of data set [1]: Colistin plasma pharmacokinetics at steady state in critically ill patients undergoing CRRT (CVVHDF). The format is in vivo, human. The following applies: median [IQR]. The protocol:
According to current guidelines, CMS high dosage (HD) was administered intravenously (IV) at loading dose (LD) of 9 MIU […] over 30-min, followed by 6.75 MIU over 30-min q12. On day 4, at steady state, pharmacokinetic analyses of the study group were performed. CRRT was delivered as continuous veno-venous hemodiafiltration (CVVHDF) with Prismaflex ST150 (Gambro AB, Lund, Sweden) using the AN69 ST membrane (acrylonitrile-sodium-methyl sulfonate surface treated; surface area, 1.5m2) and regional citrate anticoagulation. Dose intensity was prescribed according to current guidelines, and with a ratio of dialysate to replacement fluid of 1:1. The CRRT circuit and membrane were changed every 72 h, as standard operating procedure in our center.
Although colistin concentration-time profiles are stable just on day 3, blood samples were collected after the seventh dose (on day 4 of treatment) at T0 (immediately before the initiation of CMS infusion) and 1 h, 2 h, 4 h, 6 h, 8 h, 10 h and 12 h from the start of CMS infusion. First order kinetic determined pharmacokinetic parameters; maximum and minimum concentrations (Cmax, Cmin) were directly obtained from observed peak and trough concentrations. The 0–12 h area under the time–concentration curve (AUC0–12 ) was determined by the linear trapezoidal rule. Colistin AUC0–24 was calculated as AUC0–12 × 2. The average steady-state plasma concentration (Css, avg) was obtained from the ratio of colistin AUC 0–24 above T (i.e. the dosage interval). In all patients, distribution volume (Vd), drug clearance (CL), and elimination half-life (t1/2 ) were calculated after a single 6.75 MIU intravenous dose at steady state. According to current guidelines, the recommended PK/PD therapeutic target has been considered the area under the plasma concentration- time curve across 24 h at steady state above MIC (fAUCss 0−24 hr) of ~ […], that equates to a target Css, avgof ~ 2 mg/L of the total drug against susceptible strains (MIC ≤ 2 mcg/mL). […] Colistin and CMS concentration were measured using and modifying the Gobin assay.

A further data set deals with Acinetobacter spp. Kind of data set: Colistin MIC of BAL isolates (Micronaut AST BMD, VITEK 2 AST-N397, EUCAST v11.0). The data set is classed as cell-based. The following applies: BAL Acinetobacter spp. isolates of 20 patients; median [interquartile range]. How it is done:
Bacterial isolates were identified by using matrix-assisted laser desorption ionization-time of flight mass spectrometry (MALDI-TOF MS). MICs were determined by a Micronaut AST system-based BMD, VITEK 2 AST-N397 card, according to the manufacturer’s instructions. EUCAST (version 11.0, 2021) clinical breakpoints were used to interpret MICs. In pneumonia episodes, microbiological evidence of bacterial infection was achieved by processing respiratory samples both for conventional and fast-microbiology panel testing. […] Semiquantitative culture results were obtained using calibrated loops to inoculate and streak samples on both selective/differential.

For data set [2] the following is noted: cited from earlier work. The protocol: Several variables may influence colistin plasma concentration as demographic (e.g. body mass), clinical (e.g. kidney function) and therapeutic (e.g. RRT modality, membrane, mode and dose) variables. In order to account for CRRT removal of colistin, the 2019 international guidelines for the optimal use of polymyxins recommend administering a daily dose of 440 colistin base activity (CBA), corresponding to ≈ 13,3 MIU or ≈ 1173 mg of CMS in patients who are exposed to this extracorporeal organ support. […] The authors, documenting a 62% ClCVVHDF, formulated a pharmacokinetic model where a LD of 12 MIU followed by a maintenance dosage of 6.75–7.5 MIU q12 would be needed to achieve a target Css, avg of 2–3 mcg/mL [31]. […] Further, in the latest and largest investigation on this topic, ten critically ill patients requiring CRRT and receiving CMS 3 MIU q8 were prospectively studied.

The conditions of data set [3]: plasmatic absorption after aerosolization of either 3 MIU and 5 MIU CMS; cited from earlier work. An excerpt: In our study, all patients underwent CVVHDF with a similar daily dose and since this technique uses diffusion across a concentration gradient (e.g. hemodialysis) in addition to hemofiltration across a pressure gradient, the equivalences of the two modes with respect to CMS/colistin clearance are unknown. Additionally none of our patients had residual renal function and almost all were also receiving high dose nebulized CMS (5 MIU q8), delivered through vibrating mesh nebulizers, potentially contributing to the higher than expected steady-state colistin levels. In our study we cannot asc ...

Data set [4] concerns CR-Acinetobacter baumannii ventilator associated pneumonia (VAP). Kind of data set: Clinical outcome of patients treated with high-dose intravenous colistimethate. The data set is classed as in vivo, human. Particulars: 20 patients, IV CMS 9 MIU LD then 6.75 MIU q12 in combination therapy, no control group.
The conditions of data set [5]: in vivo, iv.
Experimental: Clinical and demographic data were recorded upon enrolment. […] Renal recovery was defined as a reduction in peak AKI-KDIGO stage [21] and was evaluated in patients without chronic kidney disease.
The mark [6] stands for this setting: colistin, 20 patients on CVVHDF (AN69 ST membrane), steady state.
Setting [7] is: eight critically ill patients receiving CRRT, CMS 4.5 MIU q12.
The mark [8] stands for this setting: five patients on CRRT, CMS until 2 MIU q8.
The mark [9] stands for this setting: ten critically ill patients requiring CRRT, CMS 3 MIU q8.

Read-outs that look alike come from different tables or passages of the source.

For the compound `CC[C@H](C)CCCCC(=O)N[C@@H](CCN)C(=O)N[C@H](C(=O)N[C@@H](CCN)C(=O)N[C@H]1CCNC(=O)[C@H]([C@@H](C)O)NC(=O)[C@H](CCN)NC(=O)[C@H](CCN)NC(=O)[C@H](CC(C)C)NC(=O)[C@@H](CC(C)C)NC(=O)[C@H](CCN)NC1=O)[C@@H](C)O` (mixture of isomers) [Colistin, Colistin (polymixin E)], in data set [1] (setting [6]), the “%E (% filter extraction)” value was 17.65 [14.98–21.67] % and the CLCRRT is 1.21 [0.88–1.35] L/h. Further, the volume of distribution (Vd) in data set [1] (human, plasma, colistin, 20 patients on CVVHDF, after a single 6.75 MIU IV CMS dose at steady state) was 126 L. The half-life in data set [1] (human, plasma, colistin, 20 patients on CVVHDF, after a single 6.75 MIU IV CMS dose at steady state, one-compartment, first order) is 20.9 h. Besides, in data set [1] (human, plasma, colistin, 20 patients on CVVHDF, after the seventh 6.75 MIU IV CMS dose at steady state, read-out: CLTOT (converted)), the clearance was 34.7 mL/min. The Cmax in data set [1] (human, plasma colistin, 20 critically ill anuric patients on CVVHDF (AN69 ST, 32.5 mL/kg/h), IV CMS 9 MIU LD then 6.75 MIU q12, after seventh dose (day 4, steady state), observed peak, modified Gobin assay) was 16.6 µg/mL. Also, in data set [1] (human, plasma colistin, 20 patients on CVVHDF, IV CMS 6.75 MIU q12 after 9 MIU LD, day 4, AUC0-12 (linear trapezoidal) x 2, read-out: AUC0-24), the AUC(0-t) worked out at 194 µg·h/mL. Besides, in data set [1] (human, plasma colistin, 20 patients on CVVHDF, IV CMS 9 MIU LD then 6.75 MIU q12, after seventh dose (day 4), observed trough, read-out: Cmin), the level at 96 h was determined as 3.93 µg/mL. For the same compound, the “Css, avg (average steady-state concentration)” value in data set [1] (plasma colistin, 20 patients on CVVHDF, IV CMS 9 MIU LD then 6.75 MIU q12, day 4, AUC0-24 over dosage interval) was 8.07 [7.1–8.69] mcg/mL. Also, the “Css, avg in patients who recovered renal function” value in data set [1] (plasma colistin, subgroup with renal recovery, p = 0.026 vs no renal recovery) was 7.48 [6.35, 8.05] mcg/mL. Further, the “Css, avg in patients that had no renal recovery” value in data set [1] (plasma colistin, subgroup without renal recovery, p = 0.026 vs renal recovery) was 8.31 [7.35, 9.13] mcg/mL. Besides, the fAUC0-24 in data set [1] (unbound colistin, unbound fraction derived from literature, 20 patients on CVVHDF, IV CMS 6.75 MIU q12, day 4) is 58.16 [51.18–62.6] mcg h/mL. Also, the MIC in the data set with Acinetobacter spp. is 1[1-1.5] mcg/mL. In addition, in data set [2] (setting [7]), the ClCVVHDF is reported as 62% and the “median Cmax” value was 1.72 µg/mL. Further, in data set [2] (setting [8]), the CLHDF result was “above 4 L/h”; the “Css, avg” value is at most 1 µg/mL; the membrane extraction ratio was 68%. Moreover, the steady-state concentrations entry in data set [2] (high CMS daily administration schedules during CRRT, especially with residual renal function and prolonged course) was “above 10 mcg/mL”. In data set [2] (setting [9]), the AUC0-24 is 569 [404–741] mcg h/mL; the “CRRT clearance as share of total clearance” value was 28%; the “Css, avg” value was 4.43 [3.01–7.24] mcg/mL. Moreover, in data set [2] (three patients on CRRT), the effluent clearance share entry was “about 40%”. Moreover, the “colistin concentrations after aerosolization” value in data set [3] was below 1 µg/mL.

In the case of colistimethate [CMS], the “Death in ICU” value in data set [4] (18 with nebulized CMS) is recorded as 15 (75) count (percentage). Moreover, the Treatment failure in data set [4] was 14 (70) count (percentage). In addition, the “Renal Recovery” value in data set [5] is 6 (37.5) count (percentage). Besides, in data set [2] (human, in vivo), the “CRRT clearance as share of total clearance” value was 41%; the “median Cmax” value was 12.6 µg/mL; the “risk to overcome the safety limit of Css, avg ≥ 4 mcg/mL” value was “less than 30%”; the “target attainment rate (Css, avg ≥ 2 mcg/mL)” value was 80%.
